Target: T1, HEK cells stably transfected with tetracycline inducible hNR1 and hNR2A (Homo sapiens, UniProt Q05586+Q12879)
T1 construct: expressed in transfected cells; host or cells: HEK cells, stably transfected, tetracycline/doxycycline inducible
Assay: Assay 1: Cell-Based Assay, cytosolic calcium response to positive allosteric modulators (with 30 μM glycine and 300 nM L-glutamate, EC30)
Settings: for EC50: cytosolic calcium response, with 30 μM glycine and 300 nM L-glutamate (EC30), — = no plateau was reached; for Max %: responses scaled relative to 100 μM L-glutamate maximal response (100%) and 0 μM L-glutamate (0%)
Method in brief: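 Cells induced 24 h with 7.5 μg mL^−1 doxycycline plus 500 μM (+)-ketamine, loaded 60 min at 37 °C with calcium dye in Mg-free HBSS (1.8 mM Ca, probenecid, 10 μM (+)-ketamine, pH 7.15). Peak RFU over 5 min after compound addition, scaled to 100 μM L-glutamate (100%) and 0 μM (0%); four-parameter Hill fit for EC50, max % if no plateau.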

T1 sequence (Q12879 23-1464, other chains not shown): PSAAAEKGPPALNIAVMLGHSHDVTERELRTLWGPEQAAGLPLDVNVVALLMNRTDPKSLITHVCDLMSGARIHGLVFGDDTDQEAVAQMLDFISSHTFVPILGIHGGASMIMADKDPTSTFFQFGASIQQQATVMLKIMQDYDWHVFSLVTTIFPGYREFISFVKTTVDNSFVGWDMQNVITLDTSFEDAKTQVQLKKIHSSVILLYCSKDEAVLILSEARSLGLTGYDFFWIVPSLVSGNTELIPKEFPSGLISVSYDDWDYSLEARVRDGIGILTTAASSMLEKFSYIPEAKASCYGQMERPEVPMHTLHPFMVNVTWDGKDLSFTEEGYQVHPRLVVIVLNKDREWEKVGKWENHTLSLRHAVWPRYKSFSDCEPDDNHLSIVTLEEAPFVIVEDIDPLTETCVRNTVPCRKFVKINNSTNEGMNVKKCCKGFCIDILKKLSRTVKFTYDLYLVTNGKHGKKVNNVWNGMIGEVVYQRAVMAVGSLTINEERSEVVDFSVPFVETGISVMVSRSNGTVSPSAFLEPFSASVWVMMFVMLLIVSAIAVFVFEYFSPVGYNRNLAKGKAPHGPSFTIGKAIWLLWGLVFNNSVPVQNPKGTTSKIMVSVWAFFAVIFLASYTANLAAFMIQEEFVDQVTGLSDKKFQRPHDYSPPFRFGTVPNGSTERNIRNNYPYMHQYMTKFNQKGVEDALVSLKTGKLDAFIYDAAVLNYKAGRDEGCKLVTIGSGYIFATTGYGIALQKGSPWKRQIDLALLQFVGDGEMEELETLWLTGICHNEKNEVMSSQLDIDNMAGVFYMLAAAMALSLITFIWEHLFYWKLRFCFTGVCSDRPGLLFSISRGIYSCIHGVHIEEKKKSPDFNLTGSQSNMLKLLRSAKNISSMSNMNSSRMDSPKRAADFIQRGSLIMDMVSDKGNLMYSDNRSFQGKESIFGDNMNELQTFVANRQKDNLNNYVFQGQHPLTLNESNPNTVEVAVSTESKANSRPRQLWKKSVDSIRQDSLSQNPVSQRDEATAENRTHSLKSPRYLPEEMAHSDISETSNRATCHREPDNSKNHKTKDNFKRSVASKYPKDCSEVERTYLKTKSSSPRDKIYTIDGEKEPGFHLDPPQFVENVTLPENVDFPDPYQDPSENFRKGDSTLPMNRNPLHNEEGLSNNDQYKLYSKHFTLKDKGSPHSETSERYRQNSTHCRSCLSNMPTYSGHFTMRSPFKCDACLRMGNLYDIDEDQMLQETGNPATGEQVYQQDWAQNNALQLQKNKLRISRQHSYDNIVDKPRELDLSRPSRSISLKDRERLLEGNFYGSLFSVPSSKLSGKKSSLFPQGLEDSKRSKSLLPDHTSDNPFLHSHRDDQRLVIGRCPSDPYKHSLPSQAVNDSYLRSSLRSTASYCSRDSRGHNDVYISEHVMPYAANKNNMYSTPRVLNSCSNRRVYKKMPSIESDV

EC50 (Table 2) [µM]	EC50 (Table 3) [µM]	Max % (Table 2) [%]	SMILES
44.5			Cc1sc2nc(Cc3cccc(C(F)(F)F)c3F)cc(=O)n2c1CO [Example 27.14, 7-(2-fluoro-3-(trifluoromethyl)benzyl)-3-(hydroxymethyl)-2-methyl-5H-thiazolo[3,2-a]pyrimidin-5-one]
	2.37		Cc1sc2nc(Cc3cccc(C#N)c3F)cc(=O)n2c1N1CCC1 [compound 113, 3-[[3-(azetidin-1-yl)-2-methyl-5-oxo-thiazolo[3,2-a]pyrimidin-7-yl]methyl]-2-fluoro-benzonitrile]
7.2		122	CCN(Cc1cc(=O)n2c3c(sc2n1)CCCC3)c1ccc(F)cc1 [Example 8.2, 2-[(N-ethyl-4-fluoro-anilino)methyl]-6,7,8,9-tetrahydropyrimido[2,1-b][1,3]benzothiazol-4-one]
	5.12		CCNC(=O)c1c(C)sc2nc(CN(CC)c3ccc(Br)cn3)cc(=O)n12 [compound 204, 7-[[(5-bromo-2-pyridyl)-ethyl-amino]methyl]-N-ethyl-2-methyl-5-oxo-thiazolo[3,2-a]pyrimidine-3-carboxamide]
9.2		130	CCNC(=O)c1c(C(F)(F)F)sc2nc(Cn3nc(C4CC4)cc3C(F)(F)F)cc(=O)n12 [Example 16.4, 7-((3-cyclopropyl-5-(trifluoromethyl)-1H-pyrazol-1-yl)methyl)-N-ethyl-5-oxo-2-(trifluoromethyl)-5H-thiazolo[3,2-a]pyrimidine-3-carboxamide]
		94.8	Cc1sc2nc(Cn3ccc(C(F)(F)F)n3)cc(=O)n2c1C(C)O (centres unmarked) [Example 18.1, 3-(1-hydroxyethyl)-2-methyl-7-((3-(trifluoromethyl)-1H-pyrazol-1-yl)methyl)-5H-thiazolo[3,2-a]pyrimidin-5-one]
		45	Cc1sc2nc(COc3ccc(F)cc3)cc(=O)n2c1C(=O)N1CCC1 [Example 1.3, 3-[(Azetidin-1-yl)carbonyl]-7-(4-fluorophenoxymethyl)-2-methyl-5H-[1,3]thiazolo[3,2-a]pyrimidin-5-one]
	6.86		CCNC(=O)c1c(OC)sc2nc(Cn3nc(C4CC4)cc3C(F)(F)F)cc(=O)n12 [compound 130, 7-[[3-cyclopropyl-5-(trifluoromethyl)pyrazol-1-yl]methyl]-N-ethyl-2-methoxy-5-oxo-thiazolo[3,2-a]pyrimidine-3-carboxamide]
2.6			Cc1sc2nc(Cc3cccc(C#N)c3F)cc(=O)n2c1C1CC1C#N (centres unmarked) [Example 23.2, 3-((3-(2-cyanocyclopropyl)-2-methyl-5-oxo-5H-thiazolo[3,2-a]pyrimidin-7-yl)methyl)-2-fluorobenzonitrile]
		53.5	CCNC(=O)c1c(C2CC2)sc2nc(Cc3cccc(C#N)c3)cc(=O)n12 [Example 21.43, 7-(3-cyanobenzyl)-2-cyclopropyl-N-ethyl-5-oxo-5H-thiazolo[3,2-a]pyrimidine-3-carboxamide]
0.956		172	CCN(Cc1cc(=O)n2c(-c3cncnc3)c(C)sc2n1)c1ccc(F)c(F)c1 [Example 5.4, 7-(((3,4-difluorophenyl)(ethyl)amino)methyl)-2-methyl-3-(pyrimidin-5-yl)-5H-thiazolo[3,2-a]pyrimidin-5-one]
	40.1		Cc1sc2nc(Oc3cccc(C(F)(F)F)c3F)cc(=O)n2c1C1CC1 [compound 73, 3-cyclopropyl-7-[2-fluoro-3-(trifluoromethyl)phenoxy]-2-methyl-thiazolo[3,2-a]pyrimidin-5-one]
		119	Cc1sc2nc(COc3ccc(F)cc3)cc(=O)n2c1C(O)C(F)(F)F (centres unmarked) [Example 2.10, 7-((4-fluorophenoxy)methyl)-2-methyl-3-(2,2,2-trifluoro-1-hydroxyethyl)-5H-thiazolo[3,2-a]pyrimidin-5-one]
	0.392		COc1sc2nc(Cn3nc(C(F)(F)F)cc3Cl)cc(=O)n2c1C(C)=O [compound 244, 3-Acetyl-7-[[5-chloro-3-(trifluoromethyl)pyrazol-1-yl]methyl]-2-methoxy-thiazolo[3,2-a]pyrimidin-5-one]
	17.8		Cc1sc2nc(Cn3nc(C(F)(F)F)cc3Cl)cc(=O)n2c1CS(C)(=O)=O [compound 185, 7-[[5-chloro-3-(trifluoromethyl)pyrazol-1-yl]methyl]-2-methyl-3-(methylsulfonylmethyl)thiazolo[3,2-a]pyrimidin-5-one]
1		152	CCN(Cc1cc(=O)n2c(CCOC)c(C)sc2n1)c1ccc(F)cc1 [Example 13.5, 7-[[Ethyl(4-fluorophenyl)amino]methyl]-3-(2-methoxyethyl)-2-methyl-5H-[1,3]thiazolo[3,2-a]pyrimidin-5-one]

EC50 (Table 2) [µM]	EC50 (Table 3) [µM]	Max % (Table 2) [%]	SMILES
1.4		138	CC(C)c1sc2nc(Cn3nc(C(F)(F)F)cc3C3CC3)cc(=O)n2c1C1CC1CO (centres unmarked) [Example 15.24, 7-[[5-cyclopropyl-3-(trifluoromethyl)pyrazol-1-yl]methyl]-3[2-(hydroxymethyl)cyclopropyl]-2-isopropyl-thiazolo[3,2-a]pyrimidin-5-one]
	0.132		N#CC1CC1c1c(C(F)(F)F)sc2nc(Cn3nc(Cl)cc3C(F)(F)F)cc(=O)n12 (centres unmarked) [compound 145, 2-[7-[[3-chloro-5-(trifluoromethyl)pyrazol-1-yl]methyl]-5-oxo-2-(trifluoromethyl)thiazolo[3,2-a]pyrimidin-3-yl]cyclopropanecarbonitrile]
	0.247		Cc1sc2nc(Cn3nc(C(F)(F)F)cc3Cl)cc(=O)n2c1C(C)(C)O [compound 108, 7-[[5-chloro-3-(trifluoromethyl)pyrazol-1-yl]methyl]-3-(1-hydroxy-1-methyl-ethyl)-2-methyl-thiazolo[3,2-a]pyrimidin-5-one]
1.7		131	Cc1sc2nc(Cn3ccc(C(F)(F)F)n3)cc(=O)n2c1[C@@H]1C[C@H]1CO (relative stereo) [Example 15.5, 3-(trans-2-(hydroxymethyl)cyclopropyl)-2-methyl-7-((3-(trifluoromethyl)-1H-pyrazol-1-yl)methyl)-5H-thiazolo[3,2-a]pyrimidin-5-one]
	8.04		CNC(=O)c1c(C)sc2nc(Cc3cc(F)c(F)cc3OC)cc(=O)n12 [compound 9, 7-[(4,5-difluoro-2-methoxy-phenyl)methyl]-N,2-dimethyl-5-oxo-thiazolo[3,2-a]pyrimidine-3-carboxamide]
24		124	Cc1sc2nc(Cc3cccc(C(F)(F)F)c3)cc(=O)n2c1[C@@H]1C[C@H]1CO (relative stereo) [Example 20.5, 3-(trans-2-(hydroxymethyl)cyclopropyl)-2-methyl-7-(3-(trifluoromethyl)benzyl)-5H-thiazolo[3,2-a]pyrimidin-5-one]
3.9		105	CCNC(=O)c1c(C)sc2nc(Cc3cccc(C4CC4)c3F)cc(=O)n12 [Example 21.25, 7-(3-cyclopropyl-2-fluorobenzyl)-N-ethyl-2-methyl-5-oxo-5H-thiazolo[3,2-a]pyrimidine-3-carboxamide]
13.9		133	Cc1sc2nc(Cc3ccc(F)c(C#N)c3)cc(=O)n2c1[C@@H]1C[C@H]1CO (relative stereo) [Example 20.9, 2-fluoro-5-((3-(trans-2-(hydroxymethyl)cyclopropyl)-2-methyl-5-oxo-5H-thiazolo[3,2-a]pyrimidin-7-yl)methyl)benzonitrile]
		68.4	CCNC(=O)c1c(C)sc2nc(Cc3ccc(F)c(C#N)c3)cc(=O)n12 [Example 21.37, 7-(3-cyano-4-fluorobenzyl)-N-ethyl-2-methyl-5-oxo-5H-thiazolo[3,2-a]pyrimidine-3-carboxamide]
		76.1	CNC(=O)c1c(C)sc2nc(Cc3cc(C#N)ccc3F)cc(=O)n12 [Example 21.50, 7-[(5-cyano-2-fluoro-phenyl)methyl]-N,2-dimethyl-5-oxo-thiazolo[3,2-a]pyrimidine-3-carboxamide]
7.2		137	Cc1ccc(C#N)cc1Cc1cc(=O)n2c([C@@H]3C[C@H]3CO)c(C)sc2n1 (relative stereo) [Example 20.6, 3-((3-(trans-2-(hydroxymethyl)cyclopropyl)-2-methyl-5-oxo-5H-thiazolo[3,2-a]pyrimidin-7-yl)methyl)-4-methylbenzonitrile]
8.7		108	CCN(Cc1cc(=O)n2c3c(sc2n1)CCC3(C)C)c1ccc(F)cc1 [Example 8.8, 6-[(N-ethyl-4-fluoro-anilino)methyl]-1,1-dimethyl-2,3-dihydrocyclopenta[3,4]thiazolo[1,4-a]pyrimidin-8-one]
		100	CCNC(=O)c1c(C)sc2nc(Cc3cc(C#N)ccc3C)cc(=O)n12 [Example 21.30, 7-(5-cyano-2-methylbenzyl)-N-ethyl-2-methyl-5-oxo-5H-thiazolo[3,2-a]pyrimidine-3-carboxamide]
	1.11		Cc1sc2nc(Cn3nc(C(F)(F)F)cc3Cl)cc(=O)n2c1/C=C/C#N [compound 262, (E)-3-[7-[[5-chloro-3-(trifluoromethyl)pyrazol-1-yl]methyl]-2-methyl-5-oxo-thiazolo[3,2-a]pyrimidin-3-yl]prop-2-enenitrile]
	0.227		CCNC(=O)c1c(C(F)F)sc2nc(Cn3nc(C(F)(F)F)cc3Cl)cc(=O)n12 [compound 258, 7-[[5-Chloro-3-(trifluoromethyl)pyrazol-1-yl]methyl]-2-(difluoromethyl)-N-ethyl-5-oxo-thiazolo[3,2-a]pyrimidine-3-carboxamide]
1.2		167	CCN(Cc1cc(=O)n2c(C(O)C(F)(F)F)c(C)sc2n1)c1ccc(F)cc1 (centres unmarked) [Example 10.11, 7-[(N-ethyl-4-fluoro-anilino)methyl]-2-methyl-3-(2,2,2-trifluoro-1-hydroxy-ethyl)thiazolo[3,2-a]pyrimidin-5-one]
